The results in this text go back to paper PMC8836258, “Structural Basis of Redox-Sensing Transcriptional Repressor Rex with Cofactor NAD^+ and Operator DNA” (International Journal of Molecular Sciences, 2022).

For the experiment, the target named is T1, Tma Rex (Thermotoga maritima, UniProt Q9WY16).
T1 construct: gene rex1; Full-length, residues 1-208 (5-207 modelled); homodimer; P-loop residues 89-94 GAGNIG; crystallised with 22-bp TM0201 operator DNA
T1 sequence (Q9WY16 1-208): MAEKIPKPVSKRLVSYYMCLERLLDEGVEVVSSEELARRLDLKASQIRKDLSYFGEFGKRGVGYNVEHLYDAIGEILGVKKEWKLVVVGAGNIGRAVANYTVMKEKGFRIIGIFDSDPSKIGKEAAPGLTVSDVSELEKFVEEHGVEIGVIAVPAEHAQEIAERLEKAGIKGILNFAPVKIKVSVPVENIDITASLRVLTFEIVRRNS
The experiment is described as follows: X-ray crystallography, co-crystal structure at […] A. The class given is binding. The settings on record: ternary complex with 22-bp TM0201 operator DNA; 1 mM NAD+ in co-crystallization; pH 6.5, 296 K; one NAD+ per monomer, C-terminal Rossmann domain near dimer interface.

Turning to `NC(=O)c1ccc[n+]([C@@H]2O[C@H](COP(=O)(O)OP(=O)(O)OC[C@H]3O[C@@H](n4cnc5c(N)ncnc54)[C@H](O)[C@@H]3O)[C@@H](O)[C@H]2O)c1` [NAD^+], the “X-ray crystallography, co-crystal structure at 2.40 A” value is “a dimeric Rex protein bound to one molecule of NAD^+ per monomer”.
